What was measured:
[1] = tested on: cardiac-specific troponin I (cTnI); assay: Measurement of cardiac-specific troponin I by ELISA; type: in vivo, rabbit; settings: rabbits, 50 mg/kg i.v. 4 days; not statistically significant
Protocol: Whole blood was drawn at baseline (pre-ischemia) and at the end of reperfusion for the determination of cardiac-specific troponin I (cTnI). Serum levels of the proteins were measured using a commercially available ELISA kit. Collected plasma samples were prepared from whole blood and were snap frozen in liquid nitrogen. The samples were stored at −80° C. until the day of the assay when they were thawed over ice and diluted appropriately with the sample diluent supplied with each assay kit. Determination of the target protein using a protein standard curve was performed according to standard procedure in the art.

[2] = tested on: MAC (C5b-9); assay: MAC deposition in heart tissue by indirect immunofluorescence; type: in vivo, rabbit; settings: rabbits, 50 mg/kg i.v. 4 days, 30 min ischemia, 3 h reperfusion; p<0.05
Protocol: (§1) The immunofluorescent method for detection of CRP was performed essentially as described previously (Lauver et al., 2005). Briefly, tissue samples used for infarct size determination were fixed in 10% buffered formalin immediately after the completion of the experimental protocol. The tissue samples were embedded in paraffin blocks and cut into sections of 2 μm in thickness, which were then mounted on glass slides. Two consecutive sections (mirror images) from a single heart slice were mounted on each slide. The slides were deparaffinized and subjected to antigen unmasking using a commercially available kit for this purpose (Vector Laboratories, Burlingame, Calif.). After blocking for 30 minutes, primary antibodies were incubated at room temperature in a humidity chamber for 45 minutes. One section per slide was incubated with a chicken anti-rabbit CRP antibody (5 μg/ml final concentration, Strategic BioSolutions, Newark, Del.) and the other section was incubated with a chicken anti-rabbit MAC antibody (1:2500 final dilution, developed in conjunction with Lampire Biological Laboratories, Pipersville, Pa.). […] Images were analyzed using IP Lab (Scanalytics, Inc., Fairfax, Va.) software to determine mean fluorescence intensity per heart section. […]

[3] = tested on: rabbit complement system; assay: Complement-mediated red blood cell (RBC) hemolysis assay, ex vivo, rabbit plasma on human erythrocytes; type: in vivo; settings: plasma after 3 h reperfusion, 50 mg/kg, 4 days; p<0.01
Protocol: A red blood cell (RBC) lysis assay was used to determine whether the pretreatment with DDA compared to placebo-treated animals was able to inhibit the rabbit complement system. The ex vivo analysis of complement activity is based on the C5b-9-dependent lysis of human red blood cells upon exposure to rabbit plasma. Complement-mediated RBC hemolysis was assessed by a turbidometric method described previously (Pascual et al., 1990). The hemolysis assay is an accepted method of assessing the complement titer of plasma or serum samples (Whaley, 1985). Rabbit plasma was obtained from whole blood samples drawn from rabbits that were pretreated with DDA (50 mg/kg, 4 days, n=5) or sterile 0.9% sodium chloride solution (4 days, n=5). After obtaining informed consent, human whole blood for the isolation of red blood cells was obtained by venipuncture of the forearm vein of a healthy donor who had not been exposed to any medication for the past seven days. The cells were washed three times in 10 ml phosphate buffered saline (PBS, pH 7.4) and diluted in PBS to achieve a final RBC concentration of 1×10^8 cells/ml. The assay was initiated by the addition of 15 μl of diluted human RBCs to 185 μl of rabbit plasma, and the light transmittance was monitored for 5 min. The final assay volume was 200 μl. […]

[4] = tested on: CRP; assay: CRP deposition in heart tissue by indirect immunofluorescence; type: in vivo, rabbit; settings: rabbits, 50 mg/kg i.v. 4 days, 30 min ischemia, 3 h reperfusion; p<0.05
Protocol: as §1

[5] = Determination of aqueous solubility/dispersibility; type: physicochemical; settings: deionized water
Protocol: (§2) 30.13 mg of 3 was added to 1 mL of USP-purified water. The sample was rotated for 2 hours, then centrifuged for 5 minutes. After centrifuging, solid was visible in the bottom of the tube. A 125-μL aliquot of the solution was then diluted to 25 mL. The sample was analyzed by UV/Vis spectroscopy at 436 nm, and the absorbance was compared to a standard curve compiled from 4 standards of known concentration. The concentration of the original supernatant was calculated to be 2.85 mg/mL and the absorptivity was 36.94 AU*mL/cm*mg. Slight error may have been introduced by the small size of the original aliquot.
as §2, with “Next, 30.80” for “30.13”, “9” for “3”, “411” for “436”, “29.27” for “2.85”, “2.90” for “36.94”

[6] = Plasma and tissue concentrations of non-esterified, free astaxanthin at the end of reperfusion; type: in vivo, rabbit; settings: rabbits, DDA 50 mg/kg i.v. for 4 days, end of 3 h reperfusion
From the text: To determine the plasma and tissue concentrations of non-esterified, free astaxanthin in blood and organs, samples were taken at the end of reperfusion in selected rabbits (n=5) treated with DDA, and determined by methods previously described (Osterlie et al., 2000). Non-esterified, free astaxanthin, in vivo, is generated after cleavage of the water-dispersible disuccinate diester to monosuccinate, and subsequently to non-esterified, free astaxanthin by the intrinsic esterase activity of serum albumin (Curry et al., 1999), or by non-specific esterase activity in plasma and solid organs (Jensen et al., 1999). Non-esterified, free astaxanthin then accumulates in myocardium and other tissues after plasma clearance in a dose-dependent manner after both oral (Showalter et al., 2004) and intravenous administration (Gross and Lockwood 2004a,b).

[7] = tested on: Sprague-Dawley rats; settings: 50 mg/kg i.v., four days; cited from earlier work

In the case of `CC1=C(/C=C/C(C)=C/C=C/C(C)=C/C=C/C=C(C)/C=C/C=C(C)/C=C/C2=C(C)C(=O)C(OC(=O)CCC(=O)O)CC2(C)C)C(C)(C)CC(OC(=O)CCC(=O)O)C1=O` (centres unmarked) [DDA, disodium disuccinate astaxanthin], the “mean serum cTnI concentration at the end of reperfusion versus vehicle controls” value [1] is reported as “lower mean cTnI concentration”, the “MAC deposition in infarct region (fluorescence intensity) versus saline” value [2] is reported as “significantly reduced fluorescence” and the “rabbit plasma-induced human erythrocyte hemolysis versus placebo” value [3] is reported as “significantly attenuated”. The “CRP deposition in infarct region (fluorescence intensity) versus saline” value [4] was “significantly reduced fluorescence”, the maximum aqueous dispersibility [5] was “greater than 10 mM” and the “mean myocardial tissue concentration of non-esterified astaxanthin” value [6] was > 10 µM. For the same compound, the “mean plasma concentration of non-esterified, free astaxanthin” value [6] was 222 ± 51 nM and the mean myocardial salvage [7] was 41%.

Source: US9180111B2, “Reduction in complement activation and inflammation during tissue injury by carotenoids, carotenoid analogs, or derivatives thereof” (Cardax Pharma, Inc., priority 2005, dated 2015)
